The record followed here is patent publication EP2433624B1, “Use of buparvaquone for controlling mites parasitising honeybees” (Bimeda International Pharmaceuticals Limited, priority 2010, dated 2012).

In one data set the test system is Varroa mites. In words: Efficacy of BPQ B against Varroa mites on honeybees fed treated sucrose solution. In kind it is in vivo. The settings on record: summary statement. The method, then: Example 6 - Toxicity of BPQ B to Varroa mites on honeybees when fed treated sucrose solution
To estimate the percentage efficacy of BPQ at different concentrations in sucrose solution
A total of 20 newly emerged Varroa infested bees were placed in hoarding cages. The cages were prepared as described in Section 1.0, except that the air vents were reduced in size using parafilm to prevent the Varroa mites escaping during the test period. The mean(±se) number of mites per 20 bees was estimated prior to commencement of the experiment and an additional 5 mites per cage were added. (mean±se = 10.6±0.33). This was carried out by collecting adult female mite from drone pupae, placing them in an eppendorf tube and then releasing them into the cages.
The treatment solution was made by dissolving BPQ B in solvent, followed by two aqueous serial dilutions producing a concentration of 500µg/mL and 5 µg/mL. From the latter, further serial dilutions were carried with sucrose solution producing the following concentrations: • 0.5µg/mL. (C1-C3) • 0.05µg/mL. (D1-D3) • 0.005µg/mL. (E1-E3) • 0.0005µg/mL. (F1-F3) • 0.00005µg/mL (G1-G3)
Three replicates were established at each concentration plus a control group which were only fed sugar syrup. All cages were placed in the incubator at 32°C and monitored on a daily basis for the number of mites and number of bees knocked down. At the end of five day treatment period, the percentage efficacy of the treatment was estimated by treating bees in all cages with Apistan (Trade Mark of Vita (Europe) Ltd. Apistan contains fluvalinate which is a synthetic pyrethroid. % efficacy = mites knocked from treatment/total mites (treatment+Apistan)*100 [formula]

For data set [1], the system named is adult honeybees (Apis mellifera). In words: Toxicity of BPQ A to honeybees when fed in a sugar syrup solution (hoarding cages, 16 days). In kind it is in vivo. The settings on record: summary statement over all the studies. As for the experimental part: We have assessed the toxicity of BPQ to adult honeybees (Apis mellifera) using the 50 mg/mL liquid solution, BPQ A, under laboratory conditions
Example 1 - Toxicity of BPQ A to honeybees when fed in a sugar syrup solution (50mL liquid at a concentration of 50mg BPQ/mL)
Hoarding cages consisted of plastic tumblers (600mL) with an opening diameter of 84mm. The tumblers were paired with standard plastic petri-dishes and glass scintillation vials. To allow sufficient ventilation, 33 holes, approximately 3mm in diameter were made in the sides of each tumbler, in addition to two 30mm x 30mm holes fitted with nylon mesh. A circular hole was cut out of the bottom of the cup, which produced an opening large enough to allow a lidded scintillation vial to pass through the hole. Two holes were drilled into the lids of the scintillation vials with a 1mm bit and these vials were filled a 1:1 sugar solution, together with different concentrations of the solvent and product. […]
Three replicates were analysed at each concentration of BPQ A and solvent as outlined below, together with a control group which were only fed sugar and water throughout the experimental period.
Bees were maintained for 16 days at 32°C. Bees were fed additional food as required throughout the experimental period and the general behaviour and survival of the test bees were recorded on a daily basis. […]

A short description of the next data set: Solubility in water. It is filed as physicochemical.

For `CC(C)(C)[C@H]1CC[C@H](CC2=C(O)C(=O)c3ccccc3C2=O)CC1` [BPQ, buparvaquone], the “effective, application via bee feed route” value in the data set with Varroa mites came out at 82%. In addition, the “harm to adult bees and larvae” value in data set [1] is given as “harmless”. Besides, in the data set “Solubility in water”, the solubility in water entry is “completely insoluble”.
